Data set [1] has as its target T1, human recombinant HDAC1 (Homo sapiens, UniProt Q13547).
T1 construct: purchased BPS Bioscience Inc. 50051
Briefly: Inhibition assay HDAC1 (fluorogenic substrate ZMAL). The settings on record: 60 min preincubation at 25 °C. In kind it is biochemical. The protocol: (§1) In vitro inhibitory activities against HDAC1−3 and HDAC6 were measured as previously published with minor modifications. […] Subsequently, 50 µL trypsin solution (0.4 mg/mL trypsin in buffer: 50 mM Tris−HCl, pH = 8.0, 100 mM NaCl) was added, followed by additional 30 min of incubation at 37 °C. […] All compounds were tested at least twice in duplicates.

For data set [2], the target named is T2, human recombinant HDAC2 (Homo sapiens, UniProt Q92769).
T2 construct: purchased BPS Bioscience Inc. 50052
T2 sequence (Q92769 whole entry): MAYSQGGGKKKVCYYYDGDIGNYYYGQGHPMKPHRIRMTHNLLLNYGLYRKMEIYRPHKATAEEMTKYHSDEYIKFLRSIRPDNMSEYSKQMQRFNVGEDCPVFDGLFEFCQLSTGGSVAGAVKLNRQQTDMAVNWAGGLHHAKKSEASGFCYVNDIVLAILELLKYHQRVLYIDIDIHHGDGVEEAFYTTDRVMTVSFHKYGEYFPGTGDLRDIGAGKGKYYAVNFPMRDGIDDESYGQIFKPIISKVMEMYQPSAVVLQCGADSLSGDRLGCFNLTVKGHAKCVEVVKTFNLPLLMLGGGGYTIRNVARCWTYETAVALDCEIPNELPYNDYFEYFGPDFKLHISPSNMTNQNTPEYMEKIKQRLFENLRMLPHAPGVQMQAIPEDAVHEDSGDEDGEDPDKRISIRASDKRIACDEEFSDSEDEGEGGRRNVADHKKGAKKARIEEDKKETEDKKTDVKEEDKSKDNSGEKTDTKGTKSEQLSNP
The experiment in a line: Inhibition assay HDAC2 (fluorogenic substrate ZMAL). The settings on record: 60 min preincubation at 25 °C. The class given is biochemical. The protocol: as §1

The target of data set [3] is human recombinant HDAC3/NcoR2 (Homo sapiens, UniProt O15379). Briefly: Inhibition assay HDAC3 (fluorogenic substrate ZMAL). The class given is biochemical. To be noted: for IC50: 60 min preincubation at 25 °C; for specificity ratio (HDAC1/HDAC3): HDAC1 over HDAC3, from IC50 values. The method, then: as §1
Chain of human recombinant HDAC3/NcoR2 (O15379 whole entry): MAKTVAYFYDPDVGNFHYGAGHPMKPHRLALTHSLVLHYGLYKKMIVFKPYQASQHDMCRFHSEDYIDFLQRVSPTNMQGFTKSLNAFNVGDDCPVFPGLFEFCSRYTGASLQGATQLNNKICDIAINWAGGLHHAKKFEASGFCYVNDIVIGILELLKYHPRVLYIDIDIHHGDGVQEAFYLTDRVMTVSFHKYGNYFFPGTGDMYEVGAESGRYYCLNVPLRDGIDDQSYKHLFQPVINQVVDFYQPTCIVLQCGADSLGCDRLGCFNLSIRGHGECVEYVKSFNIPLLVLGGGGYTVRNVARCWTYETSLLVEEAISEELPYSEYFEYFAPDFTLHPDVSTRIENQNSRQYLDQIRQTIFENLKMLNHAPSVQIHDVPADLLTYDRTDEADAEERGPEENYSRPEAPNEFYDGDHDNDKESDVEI
Chain of human recombinant HDAC3/NcoR2 (Q9Y618 395-489 partner limits assumed): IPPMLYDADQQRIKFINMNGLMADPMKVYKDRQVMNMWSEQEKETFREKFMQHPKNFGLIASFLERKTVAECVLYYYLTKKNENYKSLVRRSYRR
For data set [4], the target named is T3, human recombinant HDAC6 (Homo sapiens, UniProt Q9UBN7).
T3 construct: purchased BPS Bioscience Inc. 50006
T3 sequence (Q9UBN7 1-1215): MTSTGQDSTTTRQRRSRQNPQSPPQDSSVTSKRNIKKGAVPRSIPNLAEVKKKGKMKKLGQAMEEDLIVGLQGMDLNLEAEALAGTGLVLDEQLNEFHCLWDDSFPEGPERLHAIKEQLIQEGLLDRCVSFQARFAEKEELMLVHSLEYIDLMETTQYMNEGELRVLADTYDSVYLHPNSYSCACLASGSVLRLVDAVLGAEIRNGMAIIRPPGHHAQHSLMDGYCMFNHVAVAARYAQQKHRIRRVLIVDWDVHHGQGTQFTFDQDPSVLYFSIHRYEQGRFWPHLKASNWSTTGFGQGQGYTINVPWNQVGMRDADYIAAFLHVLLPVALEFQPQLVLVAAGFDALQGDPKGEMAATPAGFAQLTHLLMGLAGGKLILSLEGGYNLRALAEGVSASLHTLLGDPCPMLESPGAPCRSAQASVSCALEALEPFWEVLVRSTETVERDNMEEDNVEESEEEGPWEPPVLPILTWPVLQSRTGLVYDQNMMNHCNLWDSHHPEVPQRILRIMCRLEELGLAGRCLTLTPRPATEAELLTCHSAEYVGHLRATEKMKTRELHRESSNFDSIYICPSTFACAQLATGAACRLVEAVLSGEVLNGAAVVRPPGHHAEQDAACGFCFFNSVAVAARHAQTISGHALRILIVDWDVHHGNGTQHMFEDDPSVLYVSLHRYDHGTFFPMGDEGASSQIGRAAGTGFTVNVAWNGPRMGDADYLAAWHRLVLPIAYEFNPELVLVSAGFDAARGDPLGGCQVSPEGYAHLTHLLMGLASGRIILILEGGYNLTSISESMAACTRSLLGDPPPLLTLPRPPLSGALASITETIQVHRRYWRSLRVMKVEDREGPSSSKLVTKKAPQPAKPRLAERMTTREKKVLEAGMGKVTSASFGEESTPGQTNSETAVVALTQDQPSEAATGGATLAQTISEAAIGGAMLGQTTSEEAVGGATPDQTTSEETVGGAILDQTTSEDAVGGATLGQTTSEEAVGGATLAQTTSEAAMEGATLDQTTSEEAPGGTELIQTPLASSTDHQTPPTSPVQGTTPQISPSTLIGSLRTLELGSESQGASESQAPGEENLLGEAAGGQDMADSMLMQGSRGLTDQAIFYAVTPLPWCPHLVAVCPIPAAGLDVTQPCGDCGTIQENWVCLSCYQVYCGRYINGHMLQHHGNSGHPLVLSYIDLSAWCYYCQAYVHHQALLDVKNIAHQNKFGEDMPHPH
Briefly: Inhibition assay HDAC6 (fluorogenic substrate ZMAL). In kind it is biochemical. The settings on record: for IC50: 15 min preincubation at 25 °C. The protocol:
as §1

Data set [5] relates to human U251-MG glioblastoma cells. The experiment in a line: MTS assay, cancer cell viability, U251-MG. The class given is cell-based. The settings on record: U-251, 72 h, mean ± SD, n = 3, read-out: Cell Viability [%] (Vehicle = 100%) U251-MG. The protocol:
(§2) F98 cells (obtained from ATCC® Washington, DC, USA) and U251-MG cells (obtained from Drs A. Feldmann and N. Metwasi, Department of Radioimmunology, HZDR, Rossendorf, Germany) were cultivated in Dulbecco’s Modified Eagle Medium (DMEM, Gibco, Invitrogen, Dun Laoghaire, Ireland) supplemented with 10% heat inactivated fetal bovine serum (Gibco, Invitrogen, Dun Laoghaire, Ireland), and 100 U/mL penicillin and 100 µg/mL streptomycin (Gibco, Invitrogen, Dun Laoghaire, Ireland) in a humidified atmosphere in a CO2 incubator (37 °C, 5% CO2).
(§3) Proliferation of F98 and U251-MG cells was determined using a commercially available MTS assay (CellTiter 96® AQueous One Solution Cell Proliferation Assay, Promega GmbH, Walldorf, Germany). Briefly, the cells were seeded into 96-well plates at a density of 5 × 10^4 cells/well 24 h prior to the experiment at 37 °C in a humidified, 5% CO2 atmosphere. On the day of the experiment, the cell culture medium was replaced by fresh medium supplemented with either test compounds (working concentration: 50 µM; prepared by 1:200 dilution from a 10 mM stock solution in 100% DMSO with cell culture medium) or vehicle (0.5% DMSO in cell culture medium), and the cells were incubated for 72 h. Subsequently, 20 µL of the MTS solution was added per well and the plate was incubated in the CO2 incubator for another 2 h. Afterwards, the absorbance was measured at a wavelength of 490 nm using a microplate reader (Model 680 microplate reader, Bio-Rad Laboratories GmbH, Feldkirchen, Germany).

Data set [6] relates to rat F98 glioma cells. The experiment in a line: MTS assay, cancer cell viability, F98. To be noted: 72 h, mean ± SD, n = 3, read-out: Cell Viability [%] (Vehicle = 100%) F98. In kind it is cell-based. The method, then: as §2, §3
A short description of data set [7]: Solubility observed in cell culture medium. In kind it is physicochemical. The settings on record: 50 µM in cell culture medium supplemented with 0.5% DMSO.

T1 sequence (Q13547 whole entry): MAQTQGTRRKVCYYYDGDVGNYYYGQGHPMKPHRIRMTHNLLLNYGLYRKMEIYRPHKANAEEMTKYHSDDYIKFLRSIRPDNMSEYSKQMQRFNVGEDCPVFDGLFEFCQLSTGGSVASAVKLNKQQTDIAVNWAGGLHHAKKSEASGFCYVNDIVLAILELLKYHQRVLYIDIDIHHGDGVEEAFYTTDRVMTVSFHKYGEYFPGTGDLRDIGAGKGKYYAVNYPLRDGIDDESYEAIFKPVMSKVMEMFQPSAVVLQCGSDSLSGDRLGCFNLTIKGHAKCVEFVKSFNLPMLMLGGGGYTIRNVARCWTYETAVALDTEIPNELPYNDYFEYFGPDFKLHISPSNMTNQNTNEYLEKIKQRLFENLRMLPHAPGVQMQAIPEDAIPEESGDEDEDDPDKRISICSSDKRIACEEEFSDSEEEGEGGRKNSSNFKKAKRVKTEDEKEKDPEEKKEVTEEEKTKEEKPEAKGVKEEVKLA

As for `CC(F)C(=O)NCc1ccc(C(=O)Nc2cc(-c3ccc(F)cc3)ccc2N)cc1` (stereo not drawn) [BA5, N-(4-amino-4′-fluoro-[1,1′-biphenyl]-3-yl)-4-[(2-fluoropropanamido)methyl]benzamide], the concentration for half-maximal inhibition (IC50) is 10.2 ± 0.4 nM in data set [1], 32.2 ± 5.5 nM in data set [2], 1300 ± 70 nM in data set [3] and greater than 10000 nM in data set [4].

As for `CC(F)C(=O)NCc1ccc(C(=O)Nc2cc(-c3ccco3)ccc2N)cc1` (stereo not drawn) [BA7, N-[2-amino-5-(furan-2-yl)phenyl]-4-[(2-fluoropropanamido)methyl]benzamide], the 50% inhibitory concentration (IC50) in data set [1] was 20.4 ± 0.3 nM; in data set [2] it was 69.1 ± 1.2 nM; in data set [3] it was 3800 ± 180 nM; in data set [4], greater than 10000 nM.

Regarding `O=C(CCCCCCC(=O)Nc1ccccc1)NO` [vorinostat], the viability at 50 µM in data set [5] turned out to be 36.9 ± 7.6%; in data set [6], 24.4 ± 7.9%.

On to `CC(F)C(=O)Nc1ccc(C(=O)Nc2cc(-c3ccco3)ccc2N)cc1` (stereo not drawn) [BA8, N-[2-amino-5-(furan-2-yl)phenyl]-4-(2-fluoropropanamido)benzamide], for which the IC50 in data set [1] is 24.2 ± 2.9 nM; in data set [2], 82.1 ± 0.1 nM; in data set [3], 4200 ± 80 nM; in data set [4], greater than 10000 nM.

As for `CC(F)C(=O)NCc1ccc(C(=O)Nc2cc(-c3ccsc3)ccc2N)cc1` (stereo not drawn) [BA3, N-[2-amino-5-(thiophen-3-yl)phenyl]-4-[(2-fluoropropanamido)methyl]benzamide], the half-inhibitory concentration (IC50) in data set [1] was 4.8 ± 0.6 nM; in data set [2], 39.9 ± 3.2 nM; in data set [3], greater than 1110 nM; in data set [4], greater than 10000 nM. Moreover, the “specificity ratio (HDAC1/HDAC3)” value in data set [3] is on record as greater than 230. For the same compound, the “specificity ratio HDAC1 over HDAC6” value in data set [4] (from IC50 values) is recorded as greater than 2080. Moreover, the “solubility in cell culture medium” value in data set [7] is listed as “slight precipitation”.

As for `CC(F)C(=O)Nc1ccc(C(=O)Nc2cc(-c3ccoc3)ccc2N)cc1` (stereo not drawn) [BA10, N-[2-amino-5-(furan-3-yl)phenyl]-4-(2-fluoropropanamido)benzamide], the IC50 in data set [1] was 17 ± 1.2 nM; in data set [2] it was 47.7 ± 2.9 nM; in data set [3] it was 3300 ± 480 nM; in data set [4] it was greater than 10000 nM.

For `CC(F)C(=O)Nc1ccc(C(=O)Nc2cc(-c3ccc(F)cc3)ccc2N)cc1` (stereo not drawn) [BA6, N-(4-amino-4′-fluoro-[1,1′-biphenyl]-3-yl)-4-(2-fluoropropanamido)benzamide], the IC50 is 14.9 ± 0.4 nM in data set [1], 56.6 ± 0.6 nM in data set [2], greater than 1110 nM in data set [3] and greater than 10000 nM in data set [4]. The “specificity ratio (HDAC1/HDAC3)” value in data set [3] is greater than 74.

With `Nc1ccccc1NC(=O)c1ccc(CNC(=O)OCc2cccnc2)cc1` [entinostat], the viability at 50 µM in data set [5] came out at 55 ± 11.2%; in data set [6], 27.5 ± 4.4%.

In the case of `CC(F)C(=O)Nc1ccc(C(=O)Nc2cc(-c3ccsc3)ccc2N)cc1` (stereo not drawn) [BA4, N-[2-amino-5-(thiophen-3-yl)phenyl]-4-(2-fluoropropanamido)benzamide], the IC50 is 11.2 ± 2.4 nM in data set [1], 38.1 ± 4.5 nM in data set [2], greater than 3330 nM in data set [3] and greater than 10000 nM in data set [4].

As for `CC(F)C(=O)Nc1ccc(C(=O)Nc2cc(-c3cccs3)ccc2N)cc1` (stereo not drawn) [BA2, N-[2-amino-5-(thiophen-2-yl)phenyl]-4-(2-fluoropropanamido)benzamide], the IC50 in data set [1] is 8.3 ± 1.4 nM; in data set [2], 33.5 ± 1.5 nM; in data set [3], greater than 1110 nM; in data set [4], greater than 10000 nM.

In the case of `CC(=O)Nc1ccc(C(=O)Nc2ccccc2N)cc1` [tacedinaline], the viability at 50 µM was 28.5 ± 3% in data set [5] and 27.1 ± 3% in data set [6].

`CC(F)C(=O)NCc1ccc(C(=O)Nc2cc(-c3cccs3)ccc2N)cc1` (stereo not drawn) [BA1, N-[2-amino-5-(thiophen-2-yl)phenyl]-4-[(2-fluoropropanamido)methyl]benzamide]: the IC50 is 4.8 ± 0.4 nM in data set [1], 64.3 ± 4.5 nM in data set [2], 2300 ± 190 nM in data set [3] and greater than 10000 nM in data set [4]. Also, the “specificity ratio (HDAC1/HDAC3)” value in data set [3] is 479.

As to `CC(F)C(=O)NCc1ccc(C(=O)Nc2cc(-c3ccoc3)ccc2N)cc1` (stereo not drawn) [BA9, N-[2-amino-5-(furan-3-yl)phenyl]-4-[(2-fluoropropanamido)methyl]benzamide], the IC50 was 19.8 ± 0.4 nM in data set [1], 56.3 ± 0.2 nM in data set [2], 2400 ± 250 nM in data set [3] and greater than 10000 nM in data set [4].

The values are drawn from article PMC8950173 (Pharmaceuticals, 2022).
